29 molecules from patent US8507489B2, “Bicyclic triazoles as protein kinase modulators” (SGX Pharmaceuticals, Inc., priority 2006, dated 2013) can be followed below.

Structures can show the parent of a compound that is named as a salt.

For one assay, the system named is GTL16 cells. Description: 96-well XTT cell survival assay (GTL16 cells). The assay is classed as cell-based. As to conditions: Homo sapiens, GTL 16, 72 hours. The procedure:
GTL16 cells were maintained in DMEM Medium supplemented with 10% fetal bovine serum (FBS) 2 mM L-Glutamine and 100 units penicillin/100 μg streptomycin, at 37° C. in 5% CO2.
Compounds were tested in the following assays in duplicate.
96-well XTT assay (GTL16 cells): One day prior to assay the growth media was aspirated off and assay media was added to cells. On the day of the assay, the cells were grown in assay media containing various concentrations of compounds (duplicates) on a 96-well flat bottom plate for 72 hours at 37° C. in 5% CO2. The starting cell number was 5000 cells per well and volume was 120 μl. At the end of the 72-hour incubation, 40 μl of XTT labeling mixture (50:1 solution of sodium 3′-[1-(phenylaminocarbonyl)-3,4-tetrazolium]-bis (4-methoxy-6-nitro) benzene sulfonic acid hydrate and Electron-coupling reagent: PMS (N-methyl dibenzopyrazine methyl sulfate) were added to each well of the plate. After an additional 5 hours of incubation at 37° C., the absorbance reading at 450 nm with a background correction of 650 nm was measured with a spectrophotometer.

For the next assay, the target named is c-MET (Homo sapiens, UniProt P08581). Description: MET luminescence-based enzyme assay (Kinase-Glo). The assay is classed as biochemical. The procedure: The subscript designates positive or negative controls. The Z′ score for a robust screening assay should be ≧0.50. The typical threshold=μ+−3*σ+. Any value that falls below the threshold was designated a “hit”.
MET Luminescence-Based Enzyme Assay
MET kinase (see below), Kinase-Glo™ (Promega Cat#V6712).
Negative controls contained 10 μM staurosporine.

Sequence of c-MET (P08581 1078-1345 limits assumed): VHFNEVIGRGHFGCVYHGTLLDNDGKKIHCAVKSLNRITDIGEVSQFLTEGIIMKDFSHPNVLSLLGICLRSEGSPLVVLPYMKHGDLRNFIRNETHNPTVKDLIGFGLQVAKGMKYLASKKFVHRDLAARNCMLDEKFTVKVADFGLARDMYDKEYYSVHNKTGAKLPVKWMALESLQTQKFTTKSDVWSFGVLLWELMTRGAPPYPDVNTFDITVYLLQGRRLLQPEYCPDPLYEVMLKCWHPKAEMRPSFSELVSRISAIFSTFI

Turning to `Cc1ccc2nnc(Sc3ccc4ncc(-c5cnn(CC6CN(C(=O)OC(C)(C)C)C6)c5)cc4c3)n2n1` [Compound 65, 3-{4-[6-(6-Methyl-[1,2,4]triazolo[4,3-b]pyridazin-3-ylsulfanyl)-quinolin-3-yl]-pyrazol-1-ylmethyl}-azetidine-1-carboxylic acid tert-butyl ester], the IC50 in the assay on GTL16 cells was at most 100 nM; on c-MET, below 100 nM. Taken in the same sequence, the figures for `Cc1ccc2nnc(Sc3ccc4ncc(-c5cnn(C6CN(C(C)C)C6)c5)cc4c3)n2n1` [Compound 69, 3-[1-(1-Isopropyl-azetidin-3-yl)-1H-pyrazol-4-yl]-6-(6-methyl-[1,2,4]triazolo[4,3-b]pyridazin-3-ylsulfanyl)-quinoline] were at most 100 nM and below 100 nM. Taken in the same sequence, the figures for `Cc1ccc2nnc(Sc3ccc4ncc(-c5cnn(C)c5)cc4c3F)n2n1` [Compound 56, 5-Fluoro-3-(1-methyl-1H-pyrazol-4-yl)-6-(6-methyl-[1,2,4]triazolo[4,3-b]pyridazin-3-ylsulfanyl)-quinoline] were at most 100 nM and below 100 nM. In the case of `Cn1cc(-c2ccc3nnc(Sc4ccc5ncccc5c4F)n3n2)cn1` [Compound 55, 5-Fluoro-6-[6-(1-methyl-1H-pyrazol-4-yl)-[1,2,4]triazolo[4,3-b]pyridazin-3-ylsulfanyl]-quinoline], the IC50 in the assay with GTL16 cells was at most 100 nM; on c-MET, below 100 nM. Regarding `Cc1ccc2nnc(Sc3ccc4ncc(-c5cnn(C6CNC6)c5)cc4c3)n2n1` [Compound 62, 3-(1-Azetidin-3-yl-1H-pyrazol-4-yl)-6-(6-methyl-[1,2,4]triazolo[4,3-b]pyridazin-3-ylsulfanyl)-quinoline], the values for the IC50 in the assay on GTL16 cells and against c-MET were at most 100 nM and below 100 nM, respectively. Regarding `CCc1ccc2nnc(Sc3ccc4ncc(-c5cnn(C6CN(CC)C6)c5)cc4c3)n2n1` [Compound 70, 3-[1-(1-Ethyl-azetidin-3-yl)-1H-pyrazol-4-yl]-6-(6-ethyl-[1,2,4]triazolo[4,3-b]pyridazin-3-ylsulfanyl)-quinoline], the IC50 was at most 100 nM with GTL16 cells and below 100 nM on c-MET.

As for `Cn1cc(-c2ccc3nnc(Sc4cc5scnc5cc4F)n3n2)cn1` [Compound 15, 3-(5-Fluoro-benzothiazol-6-ylsulfanyl)-6-(1-methyl-1H-pyrazol-4-yl)-[1,2,4]triazolo[4,3-b]pyridazine], the IC50 in the assay with GTL16 cells was at most 100 nM; on c-MET, below 100 nM. For the molecule `Cc1ccc2nnc(Sc3ccc4ncc(-c5cn[nH]c5)cc4c3)n2n1` [Compound 59, 6-(6-Methyl-[1,2,4]triazolo[4,3-b]pyridazin-3-ylsulfanyl)-3-(1H-pyrazol-4-yl)-quinoline], the figures for the IC50 in the assay with GTL16 cells and on c-MET were 100 to 1000 nM and below 100 nM, respectively.

Regarding `COCCn1cnc2ccc(Sc3nnc4ccc(-c5cnn(C)c5)nn34)cc21` [Compound 31, 3-[3-(2-Methoxy-ethyl)-3H-benzoimidazol-5-ylsulfanyl]-6-(1-methyl-1H-pyrazol-4-yl)-[1,2,4]triazolo[4,3-b]pyridazine], the IC50 in the assay with GTL16 cells is 100 to 1000 nM; against c-MET, below 100 nM. For the molecule `CCn1cnc2ccc(Sc3nnc4ccc(-c5cnn(C)c5)nn34)cc21` [Compound 30, 3-(3-Ethyl-3H-benzoimidazol-5-ylsulfanyl)-6-(1-methyl-1H-pyrazol-4-yl)-[1,2,4]triazolo[4,3-b]pyridazine], the IC50 is at most 100 nM in the assay with GTL16 cells and below 100 nM at c-MET. `Cc1ccc2nnc(Sc3ccc4nccc(Sc5nncn5C)c4c3)n2n1` [Compound 57, 6-(6-Methyl-[1,2,4]triazolo[4,3-b]pyridazin-3-ylsulfanyl)-4-(4-methyl-4H-[1,2,4]triazol-3-ylsulfanyl)-quinoline] had an IC50 on c-MET above 10000 nM. On to `Cc1ccc2nnc(Sc3c[nH]c4ncc(-c5cnn(C)c5)cc34)n2n1` [Compound 53, 6-Methyl-3-[5-(1-methyl-1H-pyrazol-4-yl)-1H-pyrrolo[2,3-b]pyridin-3-ylsulfanyl]-[1,2,4]triazolo[4,3-b]pyridazine], for which the IC50 was 100 to 1000 nM in the assay on GTL16 cells and below 100 nM at c-MET. In turn, `Cn1cc(-c2ccc3nnc(Sc4ccc5nccc(NC(=O)OC(C)(C)C)c5c4)n3n2)cn1` [Compound 36, {6-[6-(1-Methyl-1H-pyrazol-4-yl)-[1,2,4]triazolo[4,3-b]pyridazin-3-ylsulfanyl]-quinolin-4-yl}-carbamic acid tert-butyl ester] returned an IC50 on c-MET of 1000 to 10000 nM.

On to `CCc1ccc2nnc(Sc3ccc4ncc(-c5cnn(C)c5)cc4c3)n2n1` [Compound 58, 6-(6-Ethyl-[1,2,4]triazolo[4,3-b]pyridazin-3-ylsulfanyl)-3-(1-methyl-1H-pyrazol-4-yl)-quinoline], for which the concentration for half-maximal inhibition (IC50) is at most 100 nM with GTL16 cells and below 100 nM on c-MET. In the case of `CNC(=O)c1ccc(-c2ccc3nnc(Sc4cc5cccnc5cc4F)n3n2)cc1F` [Compound 17, 2-Fluoro-4-[3-(7-fluoro-quinolin-6-ylsulfanyl)-[1,2,4]triazolo[4,3-b]pyridazin-6-yl]-N-methyl-benzamide], the IC50 in the assay on GTL16 cells is at most 100 nM; against c-MET, below 100 nM. Take `Cc1ccc2nnc(Sc3ccc4ncc(Br)cc4c3)n2n1` [Compound 43, 3-Bromo-6-(6-methyl-[1,2,4]triazolo[4,3-b]pyridazin-3-ylsulfanyl)-quinoline]: at c-MET, the IC50 was in the range of 100 to 1000 nM. As for `Cc1ccc2nnc(Sc3ccc4ncc(-c5cnn(C6CN(C)C6)c5)cc4c3)n2n1` [Compound 63, 3-[1-(1-Methyl-azetidin-3-yl)-1H-pyrazol-4-yl]-6-(6-methyl-[1,2,4]triazolo[4,3-b]pyridazin-3-ylsulfanyl)-quinoline], the values for the IC50 in the assay on GTL16 cells and against c-MET were at most 100 nM and below 100 nM, respectively. Take `Cn1cc(-c2cnc3[nH]cc(Sc4nnc5ccc(-c6cnn(C)c6)nn45)c3c2)cn1` [Compound 46, 6-(1-Methyl-1H-pyrazol-4-yl)-3-[5-(1-methyl-1H-pyrazol-4-yl)-1H-pyrrolo[2,3-b]pyridin-3-ylsulfanyl]-[1,2,4]triazolo[4,3-b]pyridazine]: the IC50 was at most 100 nM in the assay with GTL16 cells and below 100 nM against c-MET. In the case of `Cc1cc2cc(Sc3nnc4ccc(-c5cnn(C)c5)nn34)ccc2nc1N` [Compound 24, 3-Methyl-6-[6-(1-methyl-1H-pyrazol-4-yl)-[1,2,4]triazolo[4,3-b]pyridazin-3-ylsulfanyl]-quinolin-2-ylamine], the IC50 against c-MET is 100 to 1000 nM.

Molecule `CNc1ccc2nnc(Sc3ccc4nccc(Sc5nnc6ccc(NC)nn56)c4c3)n2n1` [Compound 48, 4,6-{6-Methylamino-[1,2,4]triazolo[4,3-b]pyridazin-3-ylsulfanyl}-quinoline] showed a concentration for half-maximal inhibition (IC50) against c-MET above 10000 nM. As for `Cc1ccc2nnc(Sc3ccc4ncccc4c3)n2n1` [Compound 37, 6-(6-Methyl-[1,2,4]triazolo[4,3-b]pyridazin-3-ylsulfanyl)-quinoline], on c-MET, the IC50 was in the range of 100 to 1000 nM. The molecule `Cn1cc(-c2ccc3nnc(Sc4ccc5nccc(N)c5c4)n3n2)cn1` [Compound 34, 6-[6-(1-Methyl-1H-pyrazol-4-yl)-[1,2,4]triazolo[4,3-b]pyridazin-3-ylsulfanyl]-quinolin-4-ylamine, trifluoroacetic acid salt] registered an IC50 at c-MET of 100 to 1000 nM. On the same count and under the same terms, as for `Cc1ccc2nnc(Sc3cc4cccnc4cc3F)n2n1` [Compound 51, 7-Fluoro-6-(6-methyl-[1,2,4]triazolo[4,3-b]pyridazin-3-ylsulfanyl)-quinoline], the figure is 100 to 1000 nM; as for `CN(C)c1ccnc2ccc(Sc3nnc4ccc(-c5cnn(C)c5)nn34)cc12` [Compound 29, Dimethyl-{6-[6-(1-methyl-1H-pyrazol-4-yl)-[1,2,4]triazolo[4,3-b]pyridazin-3-ylsulfanyl]-quinolin-4-yl}-amine], 100 to 1000 nM; as for `Cc1cnc2ccc(Sc3nnc4ccc(C)nn34)cc2c1` [Compound 54, 3-Methyl-6-(6-methyl-[1,2,4]triazolo[4,3-b]pyridazin-3-ylsulfanyl)-quinoline], 100 to 1000 nM. As for `CNc1ccnc2ccc(Sc3nnc4ccc(-c5cnn(C)c5)nn34)cc12` [Compound 28, Methyl-{6-[6-(1-methyl-1H-pyrazol-4-yl)-[1,2,4]triazolo[4,3-b]pyridazin-3-ylsulfanyl]-quinolin-4-yl}-amine], the IC50 against c-MET was in the range of 1000 to 10000 nM. As for `Cn1cc(-c2ccc3nnc(Sc4ccc5c(ccc[n+]5[O-])c4)n3n2)cn1` [Compound 27, 6-[6-(1-Methyl-1H-pyrazol-4-yl)-[1,2,4]triazolo[4,3-b]pyridazin-3-ylsulfanyl]-quinoline, N-oxide], at c-MET, the IC50 lay within 1000 to 10000 nM. Molecule `CNc1ccc2nnc(Sc3ccc4ncccc4c3-c3cnn(C)c3)n2n1` [Compound 49, Methyl-{3-[5-(1-methyl-1H-pyrazol-4-yl)-quinolin-6-ylsulfanyl]-[1,2,4]triazolo[4,3-b]pyridazin-6-yl}-amine] displayed an IC50 against c-MET above 10000 nM. On the same count and under the same terms, as for “Methyl-{3-[4-(4-methyl-4H-[1,2,4]triazol-3-ylsulfanyl)-quinolin-6-ylsulfanyl]-[1,2,4]triazolo[4,3-b]pyridazin-6-yl}-amine (A), Methyl-{3-[6-(4-methyl-4H-[1,2,4]triazol-3-ylsulfanyl)-quinolin-4-ylsulfanyl]-[1,2,4]triazolo[4,3-b]pyridazin-6-yl}-amine (B) [Compound 47]”, the figure is 1000 to 10000 nM.
